25 compounds from patent US9884818B2, “Sulphamoylpyrrolamide derivatives and the use thereof as medicaments for the treatment of hepatitis B” (Janssen Sciences Ireland UC, priority 2013, dated 2018) can be followed below.

Data set [1] can be described thus: Cytotoxicity in HepG2 cells, Resazurin viability assay. The settings on record: human, HepG2 cells, HepG2 4 days CC50 (μM), incubated for 4 days, Resazurin assay. Background: The colour change of resazurin is a common sign of viable cells or microbes.
Data set [2] deals with HBV. Kind of data set: Anti-HBV activity, HepG2.2.15 stable transfected cell line, HBV DNA from secreted virions by realtime PCR. Type of data set: cell-based. The note with it: HepG2.2.15 cells, 6 days of treatment, HBV DNA from secreted virions, read-out: HepG2 2.15 EC50.
The test system of data set [3] is HBV. Kind of data set: Anti-HBV activity, HepG2.117 inducibly HBV producing cell line (Tet-off), intracellular HBV DNA by realtime PCR. It is filed as cell-based. The note with it: Hepatitis B virus, HepG2.117, 72 h, HepG2.117 cells, 3 days of treatment, intracellular HBV DNA; read-out: HepG2 117 EC50.
The mark [4] stands for this setting: Hepatitis B virus, HepG2.2.15, 144 h.

In general, CC50 refers to the concentration at which the toxic effect on the cells reaches its halfway point. Lower therefore signals harm at low concentration. In general, EC50 refers to the concentration that produces a half-maximal response. Take `Cn1cc(S(=O)(=O)NC(C)(C)C)cc1C(=O)Nc1ccc(F)c(OC(F)(F)F)c1` [Compound 98, 4-(tert-Butylsulfamoyl)-N-[4-fluoro-3-(trifluoromethoxy)phenyl]-1-methyl-1H-pyrrole-2-carboxamide]: the CC50 at 4 days in data set [1] is more than 25 µM. The EC50 with HBV [2] (setting [4]) came out at 810 nM; with HBV [3], 540 nM.

For `CC(C)NS(=O)(=O)c1cc(C(=O)Nc2cc(F)c(F)c(Cl)c2)n(C)c1` [Compound 57, N-(3-chloro-4,5-difluoro-phenyl)-4-(isopropylsulfamoyl)-1-methyl-pyrrole-2-carboxamide], the CC50 at 4 days in data set [1] is more than 25 µM. In addition, the EC50 in the data set on HBV [2] (setting [4]) turned out to be 60 nM; with HBV [3], 50 nM.

As to `Cn1cc(S(=O)(=O)NCC(F)(F)F)cc1C(=O)Nc1cc(F)c(F)c(Cl)c1` [Compound 133, N-(3-Chloro-4,5-difluorophenyl)-1-methyl-4-[(2,2,2-trifluoroethyl)sulfamoyl]-1H-pyrrole-2-carboxamide], in data set [1], the CC50 at 4 days is more than 25 µM. For the same compound, the EC50 turned out to be 40 nM with HBV [2] (setting [4]) and 80 nM in the data set on HBV [3].

As for `C[C@H](NS(=O)(=O)c1cc(C(=O)Nc2cccc(C#N)c2F)n(C)c1)C(F)(F)F` [Compound 198, N-(3-Cyano-2-fluorophenyl)-1-methyl-4-{[(1S)-2,2,2-trifluoro-1-methylethyl]sulfamoyl}-1H-pyrrole-2-carboxamide], the CC50 at 4 days in data set [1] is more than 25 µM. Besides, the EC50 with HBV [2] (setting [4]) is 150 nM; with HBV [3] it was 80 nM.

As to `Cn1cc(S(=O)(=O)NC(C)(C)C)cc1C(=O)Nc1cc(Cl)c(F)c(Cl)c1` [Compound 76, 4-(tert-Butylsulfamoyl)-N-(3,5-dichloro-4-fluorophenyl)-1-methyl-1H-pyrrole-2-carboxamide], the CC50 at 4 days in data set [1] is more than 25 µM. The figures for the EC50 in the data set with HBV [2] (setting [4]) and in the data set on HBV [3] were 180 nM and 130 nM, respectively.

In the case of `CC(C)NS(=O)(=O)c1cc(C(=O)Nc2cc(F)c(F)c(C#N)c2)n(C)c1` [Compound 52, N-(3-cyano-4,5-difluoro-phenyl)-4-(isopropylsulfamoyl)-1-methyl-pyrrole-2-carboxamide], in data set [1], the CC50 at 4 days is more than 25 µM. Besides, the EC50 amounted to 260 nM with HBV [2] (setting [4]) and 330 nM in the data set with HBV [3].

For `Cc1cc(NC(=O)c2cc(S(=O)(=O)NC(C)(C)C)cn2C)ccc1F` [Compound 16, 4-(tert-butylsulfamoyl)-N-(4-fluoro-3-methyl-phenyl)-1-methyl-pyrrole-2-carboxamide], in data set [1], the CC50 at 4 days was more than 25 µM. Besides, the EC50 was found to be 60 nM with HBV [2] (setting [4]) and 30 nM with HBV [3].

The compound `Cn1cc(S(=O)(=O)NC2CCC(F)(F)C2)cc1C(=O)Nc1cc(F)c(F)c(Cl)c1` (racemic) [Compound 166, N-(3-Chloro-4,5-difluorophenyl)-4-[(3,3-difluorocyclopentyl)sulfamoyl]-1-methyl-1H-pyrrole-2-carboxamide] displayed a CC50 at 4 days in data set [1] of more than 25 µM. Moreover, the EC50 with HBV [2] (setting [4]) amounted to 140 nM; in the data set on HBV [3], 120 nM.

`CC(C)NS(=O)(=O)c1cc(C(=O)Nc2ccc(F)c(C#N)c2)n(C)c1` [Compound 175, N-(3-Cyano-4-fluorophenyl)-1-methyl-4-[(1-methylethyl)sulfamoyl]-1H-pyrrole-2-carboxamide] came in with a CC50 at 4 days in data set [1] of more than 25 µM. Besides, the EC50 in the data set on HBV [2] (setting [4]) worked out at 70 nM; in the data set on HBV [3] it was 130 nM.

In data set [1], `Cn1cc(S(=O)(=O)NC2CCC(F)(F)C2)cc1C(=O)Nc1cc(F)c(F)c(Cl)c1` (single isomer, unassigned) [Compound 166a, N-(3-Chloro-4,5-difluorophenyl)-4-[(3,3-difluorocyclopentyl)sulfamoyl]-1-methyl-1H-pyrrole-2-carboxamide] showed a CC50 at 4 days of 17.9 µM. The EC50 in the data set with HBV [2] is 140 nM; in the data set with HBV [3], 100 nM.

`Cc1c(S(=O)(=O)N[C@@H](C)C(F)(F)F)cn(C)c1C(=O)Nc1ccc(F)c(C#N)c1` [Compound 151, N-(3-Cyano-4-fluorophenyl)-1,3-dimethyl-4-{[(1S)-2,2,2-trifluoro-1-methylethyl]sulfamoyl}-1H-pyrrole-2-carboxamide] had a CC50 at 4 days in data set [1] of more than 25 µM. Besides, the values for the EC50 in the data set on HBV [2] (setting [4]) and in the data set with HBV [3] were 80 nM and 70 nM, respectively.

The compound `C[C@@H](NS(=O)(=O)c1cn(C)c(C(=O)Nc2cccc(Br)c2)c1F)C(F)(F)F` [Compound 280, N-(3-bromophenyl)-3-fluoro-1-methyl-4-[[(1R)-2,2,2-trifluoro-1-methyl-ethyl]sulfamoyl]pyrrole-2-carboxamide] came in with a CC50 at 4 days in data set [1] of more than 25 µM. Further, the EC50 with HBV [2] (setting [4]) turned out to be 5 nM; in the data set on HBV [3] it was 60 nM.

In data set [1], `Cc1cc(NC(=O)c2cc(S(=O)(=O)NC(C)(C)C(=O)N(C)C)cn2C)ccc1F` [Compound 63, 4-[[2-(dimethylamino)-1,1-dimethyl-2-oxo-ethyl]sulfamoyl]-N-(4-fluoro-3-methyl-phenyl)-1-methyl-pyrrole-2-carboxamide] gave a CC50 at 4 days of more than 25 µM. Moreover, the 50% effective concentration (EC50) in the data set with HBV [2] (setting [4]) was determined as 60 nM; in the data set with HBV [3], 40 nM.

As to `Cn1cc(S(=O)(=O)NC2(C)COC2)cc1C(=O)Nc1cccc(C#N)c1` [Compound 55, N-(3-cyanophenyl)-1-methyl-4-[(3-methyloxetan-3-yl)sulfamoyl]pyrrole-2-carboxamide], the CC50 at 4 days in data set [1] was more than 25 µM. For the same compound, the EC50 turned out to be 210 nM with HBV [2] (setting [4]) and 110 nM in the data set with HBV [3].

On to `Cn1cc(S(=O)(=O)NC2(C(F)(F)F)CCC2)cc1C(=O)Nc1cc(F)c(F)c(Cl)c1` [Compound 189, N-(3-Chloro-4,5-difluorophenyl)-1-methyl-4-{[1-(trifluoromethyl)-cyclobutyl]sulfamoyl}-1H-pyrrole-2-carboxamide], for which, in data set [1], the CC50 at 4 days is 11.3 µM. Further, the EC50 in the data set on HBV [2] (setting [4]) and in the data set with HBV [3] was 7 nM in each case.

The compound `Cn1cc(S(=O)(=O)NC(C)(C)C)c(Cl)c1C(=O)Nc1ccc(F)c(C#N)c1` [Compound 226, 4-(tert-Butylsulfamoyl)-3-chloro-N-(3-cyano-4-fluorophenyl)-1-methyl-1H-pyrrole-2-carboxamide] returned a CC50 at 4 days in data set [1] of more than 25 µM. The EC50 in the data set with HBV [2] (setting [4]) worked out at 190 nM; with HBV [3], 210 nM.

Regarding `C[C@@H](NS(=O)(=O)c1cc(C(=O)Nc2cccc(C(F)(F)F)c2F)n(C)c1)C(F)(F)F` [Compound 159, N-[2-Fluoro-3-(trifluoromethyl)phenyl]-1-methyl-4-{[(1R)-2,2,2-trifluoro-1-methylethyl]sulfamoyl}-1H-pyrrole-2-carboxamide], the CC50 at 4 days in data set [1] was more than 25 µM. Moreover, the EC50 in the data set on HBV [2] (setting [4]) is 90 nM; in the data set with HBV [3] it was 810 nM.

As to `Cn1cc(S(=O)(=O)NC2(C)COC2)cc1C(=O)Nc1ccc(F)c(Cl)c1F` [Compound 121, N-(3-Chloro-2,4-difluorophenyl)-1-methyl-4-[(3-methyloxetan-3-yl)sulfamoyl]-1H-pyrrole-2-carboxamide], the CC50 at 4 days in data set [1] was more than 25 µM. Further, the EC50 with HBV [2] (setting [4]) worked out at 50 nM; in the data set on HBV [3], 40 nM.

In turn, `Cn1cc(S(=O)(=O)NCC(F)F)cc1C(=O)Nc1ccc(F)c(C#N)c1` [Compound 126, N-(3-Cyano-4-fluorophenyl)-4-[(2,2-difluoroethyl)sulfamoyl]-1-methyl-1H-pyrrole-2-carboxamide] had a CC50 at 4 days in data set [1] of more than 25 µM. For the same compound, the EC50 is 590 nM in the data set on HBV [2] (setting [4]) and 230 nM with HBV [3].

Turning to `CC(C)NS(=O)(=O)c1cn(C)c(C(=O)Nc2ccc(F)c(Br)c2)c1F` [Compound 230, N-(3-Bromo-4-fluorophenyl)-3-fluoro-1-methyl-4-[(1-methylethyl)sulfamoyl]-1H-pyrrole-2-carboxamide], in data set [1], the CC50 at 4 days is more than 25 µM. Besides, the EC50 in the data set with HBV [2] (setting [4]) is 8 nM; in the data set with HBV [3], 30 nM.

In the case of `CC(C)NS(=O)(=O)c1cn(C)c(C(=O)Nc2ccc(F)c(F)c2)c1F` [Compound 232, N-(3,4-Difluorophenyl)-3-fluoro-1-methyl-4-[(1-methylethyl)sulfamoyl]-1H-pyrrole-2-carboxamide], the CC50 at 4 days in data set [1] was more than 25 µM. Besides, the EC50 with HBV [2] (setting [4]) and in the data set with HBV [3] was 20 nM throughout.

The compound `CC(CC(F)(F)F)NS(=O)(=O)c1cc(C(=O)Nc2cc(F)c(F)c(Cl)c2)n(C)c1` (single isomer, unassigned) [Compound 169a, N-(3-Chloro-4,5-difluorophenyl)-1-methyl-4-[(3,3,3-trifluoro-1-methylpropyl)sulfamoyl]-1H-pyrrole-2-carboxamide] came in with a CC50 at 4 days in data set [1] of 16.1 µM. The values for the EC50 in the data set with HBV [2] and in the data set with HBV [3] were 140 nM and 50 nM, respectively.

The compound `Cc1cc(NC(=O)c2cc(S(=O)(=O)NC3(CO)CC3)cn2C)ccc1F` [Compound 12, N-(4-fluoro-3-methyl-phenyl)-4-[[1-(hydroxymethyl)cyclopropyl]sulfamoyl]-1-methyl-pyrrole-2-carboxamide] yielded a CC50 at 4 days in data set [1] of more than 25 µM. The EC50 was determined as 120 nM in the data set on HBV [2] (setting [4]) and 60 nM in the data set with HBV [3].

For `Cn1cc(S(=O)(=O)NC(CF)CF)cc1C(=O)Nc1ccc(F)c(C#N)c1` [Compound 242, N-(3-Cyano-4-fluorophenyl)-4-{[2-fluoro-1-(fluoromethyl)ethyl]sulfamoyl}-1-methyl-1H-pyrrole-2-carboxamide], the CC50 at 4 days in data set [1] is more than 25 µM. For the same compound, the EC50 in the data set on HBV [2] (setting [4]) amounted to 200 nM; in the data set on HBV [3] it was 300 nM.

`C[C@H](NS(=O)(=O)c1cn(C)c(C(=O)Nc2ccc(F)c(C#N)c2)c1F)C(F)(F)F` [Compound 188, N-(3-Cyano-4-fluorophenyl)-3-fluoro-1-methyl-4-{[(1S)-2,2,2-trifluoro-1-methylethyl]sulfamoyl}-1H-pyrrole-2-carboxamide] displayed a CC50 at 4 days in data set [1] of more than 25 µM. Further, the results for the concentration for a half-maximal effect (EC50) in the data set on HBV [2] (setting [4]) and in the data set with HBV [3] were 40 nM and 30 nM, respectively.
